Test results reported in patent publication US20140343049A1, “DIHYDROFURAN DERIVATIVES AS INSECTICIDAL COMPOUNDS” (SYNGENTA PARTICIPATIONS AG, priority 2011, published 2014).

How the values were obtained:
Type in all cases: in vivo
[1] = test system: Plutella xylostella (diamond back moth); experiment: Plutella xylostella L2 larvae test on artificial diet; conditions: 144 h, 200 ppm (concentration in well 18 ppm), 6 days, larval mortality and growth regulation
Method: 24-well microtiter plate (MTP) with artificial diet was treated with test solutions at an application rate of 200 ppm (concentration in well 18 ppm) by pipetting. After drying, the MTPs were infested with L2 larvae (7-12 per well). After an incubation period of 6 days, samples were checked for larval mortality and growth regulation.

[2] = test system: Thrips tabaci (onion thrips); experiment: Thrips tabaci sunflower leaf disc spray test; conditions: foliar, 168 h, sunflower leaf discs sprayed at 200 ppm, mixed ages, mortality after 7 days
Method: Sunflower leaf discs were placed on agar in a 24-well microtiter plate and sprayed with test solutions at an application rate of 200 ppm. […] After drying, the leaf discs were infested with a thrip population of mixed ages. After an incubation period of 7 days, samples were checked for mortality.

[3] = test system: Diabrotica balteata (corn root worm); experiment: Diabrotica balteata L2 larvae test on artificial diet; conditions: 120 h, 200 ppm (concentration in well 18 ppm), 5 days, larval mortality and growth regulation
Outline: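 Artificial diet treated with test solution at 200 ppm or 12.5 ppm application rate (in-well concentration stated as 18 ppm), dried, then infested with 6-10 L2 larvae per well. Larval mortality and growth regulation scored after 5 days.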

[4] = test system: Heliothis virescens (tobacco budworm); experiment: Heliothis virescens egg test on artificial diet; conditions: 96 h, 200 ppm (concentration in well 18 ppm), eggs 0-24 h old, 4 days, egg mortality, larval mortality, growth regulation
Method: Eggs (0-24 h old) were placed in 24-well microtiter plate on artificial diet and treated with test solutions at an application rate of 200 ppm (concentration in well 18 ppm) by pipetting. After an incubation period of 4 days, samples were checked for egg mortality, larval mortality, and growth regulation.

[5] = test system: Spodoptera littoralis (Egyptian cotton leaf worm); experiment: Spodoptera littoralis (systemic) test, compound in agar taken up by salad roots; conditions: 120 h, application rate 12.5 ppm, checked 5 days after infestation for mortality, repellent effect, feeding behavior, growth regulation
Description: Test compounds were applied by pipette into 24 well plates and mixed with agar. Salad seeds were placed on the agar and the multi well plate is closed by another plate which contains also agar. After 7 days the roots have absorbed the compound and the salad has grown into the lid plate. The salad leafs were now cut off into the lid plate. Spodoptera eggs were pipette through a plastic stencil on a humid gel blotting paper and the plate closed with it. The samples are checked for mortality, repellent effect, feeding behavior, and growth regulation 5 days after infestation. Application rate: 12.5 ppm
Test compounds were applied by pipette into 24 well plates and mixed with agar. Salad seeds were placed on the agar and the multi well plate is closed by another plate which contains also agar. After 7 days the roots have absorbed the compound and the salad has grown into the lid plate. The salad leafs were now cut off into the lid plate. Spodoptera eggs were pipette through a plastic stencil on a humid gel blotting paper and the plate closed with it. The samples are checked for mortality, repellent effect, feeding behavior, and growth regulation 5 days after infestation.

[6] = test system: Myzus persicae (green peach aphid); experiment: Myzus persicae (sachet) mixed population test; conditions: 120 h, sucrose solution, application rate 12.5 ppm, mortality 5 days after infestation
Description: Test compounds were applied by pipette into 24 well plates and mixed with Sucrose solution. The plates were closed with a stretched Parafilm. A plastic stencil with 24 holes is placed onto the plate and infested pea seedlings were placed directly on the Parafilm. The infested plate is closed with a gel blotting paper and another plastic stencil and then turned upside down. 5 days after infestation the samples were checked on mortality. Application rate: 12.5 ppm.

[7] = test system: Tetranychus urticae (two-spotted spider mite); experiment: Tetranychus urticae bean leaf disc spray test; conditions: foliar, 192 h, bean leaf discs sprayed at 200 ppm, mixed ages, egg, larval and adult mortality 8 days later
Outline: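 Leaf discs of bean on agar were sprayed at 200 ppm, dried, then infested with mixed-age mites. Egg, larval and adult mortality were scored 8 days later.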

[8] = test system: Spodoptera littoralis (Egyptian cotton leafworm); experiment: Spodoptera littoralis cotton leaf disc spray test; conditions: foliar, 72 h, cotton leaf discs sprayed at 200 ppm, 5 L1 larvae, mortality, feeding behavior, growth regulation 3 days after treatment
Description: Cotton leaf discs were placed on agar in a 24-well microtiter plate and sprayed with test solutions at an application rate of 200 ppm. After drying, the leaf discs were infested with 5 L1 larvae. The samples were checked for mortality, feeding behavior, and growth regulation 3 days after treatment (DAT).

Cc1cc(C2=CC(c3cc(Cl)cc(Cl)c3)(C(F)(F)F)OC2)ccc1C(=O)NCC(=O)NCC(F)(F)F (stereo not shown) [Compound A1, 4-[5-(3,5-Dichloro-phenyl)-5-trifluoromethyl-2,5-dihydro-furan-3-yl]-2-methyl-N-[(2,2,2-trifluoro-ethylcarbamoyl)-methyl]-benzamide]
≥ 80%: pest or weed control at 200 ppm [1] | pest or weed control at 200 ppm [2] | pest or weed control at 200 ppm [3] | pest or weed control at 200 ppm [4] | pest or weed control at 12.5 ppm [5] | pest or weed control at 12.5 ppm [6] | pest or weed control at 200 ppm [7] | pest or weed control at 200 ppm [8]

Cc1cc(C2=CC(c3cc(Cl)cc(Cl)c3)(C(F)(F)F)OC2)ccc1C(=O)NC1C[S+]([O-])C1 (stereo not shown) [Compound D20]
≥ 80%: pest or weed control at 200 ppm [1] | pest or weed control at 200 ppm [3] | pest or weed control at 12.5 ppm [5]

Cc1cc(C2=CC(c3cc(Cl)cc(Cl)c3)(C(F)(F)F)OC2)ccc1C(=O)NC1CS(=O)(=O)C1 (stereo not shown) [Compound A15]
≥ 80%: pest or weed control at 200 ppm [1] | pest or weed control at 200 ppm [2] | pest or weed control at 200 ppm [3] | pest or weed control at 200 ppm [4] | pest or weed control at 12.5 ppm [5] | pest or weed control at 12.5 ppm [6] | pest or weed control at 200 ppm [7] | pest or weed control at 200 ppm [8]

Cc1cc(C2=CC(c3cc(Cl)cc(Cl)c3)(C(F)(F)F)OC2)ccc1C(=O)NCC(F)(F)F (stereo not shown) [Compound D1]
≥ 80%: pest or weed control at 200 ppm [2] | pest or weed control at 12.5 ppm [5]

Cc1cc(C2=CC(c3cc(Cl)cc(Cl)c3)(C(F)(F)F)OC2)ccc1C(=O)NCC1CCCO1 (stereo not shown) [Compound D8]
≥ 80%: pest or weed control at 200 ppm [2] | pest or weed control at 12.5 ppm [5] | pest or weed control at 12.5 ppm [6] | pest or weed control at 200 ppm [7]

Cc1nc(C2=CC(c3cc(Cl)cc(Cl)c3)(C(F)(F)F)OC2)ccc1C(=O)NC1CS(=O)(=O)C1 (stereo not shown) [Compound C13]
≥ 80%: pest or weed control at 200 ppm [1] | pest or weed control at 200 ppm [2] | pest or weed control at 200 ppm [3] | pest or weed control at 200 ppm [4] | pest or weed control at 12.5 ppm [5] | pest or weed control at 12.5 ppm [6] | pest or weed control at 200 ppm [7] | pest or weed control at 200 ppm [8]

Cc1nc(C2=CC(c3cc(Cl)cc(Cl)c3)(C(F)(F)F)OC2)ccc1C(=O)NCC(=O)NCC(F)(F)F (stereo not shown) [Compound C5]
≥ 80%: pest or weed control at 200 ppm [1] | pest or weed control at 200 ppm [2] | pest or weed control at 200 ppm [3] | pest or weed control at 200 ppm [4] | pest or weed control at 12.5 ppm [5] | pest or weed control at 12.5 ppm [6] | pest or weed control at 200 ppm [7] | pest or weed control at 200 ppm [8]

Cc1cc(C2=CO[C@@](c3cc(Cl)cc(Cl)c3)(C(F)(F)F)C2)ccc1C(=O)NCC(=O)NCC(F)(F)F [Compound D5, 4-[(2S)-2-(3,5-dichlorophenyl)-2-(trifluoromethyl)-3H-furan-4-yl]-2-methyl-N-[2-oxo-2-(2,2,2-trifluoroethylamino)ethyl]benzamide]
≥ 80%: pest or weed control at 200 ppm [1] | pest or weed control at 200 ppm [2] | pest or weed control at 200 ppm [3] | pest or weed control at 200 ppm [4] | pest or weed control at 12.5 ppm [5] | pest or weed control at 12.5 ppm [6] | pest or weed control at 200 ppm [7] | pest or weed control at 200 ppm [8]

CCN1OC[C@H](NC(=O)c2ccc(C3=CC(c4cc(Cl)cc(Cl)c4)(C(F)(F)F)OC3)cc2C)C1=O (stereo partly drawn) [Compound A16, 4-[5-(3,5-Dichloro-phenyl)-5-trifluoromethyl-2,5-dihydro-furan-3-yl]-N—((S)-2-ethyl-3-oxo-isoxazolidin-4-yl)-2-methyl-benzamide]
≥ 80%: pest or weed control at 200 ppm [1] | pest or weed control at 200 ppm [2] | pest or weed control at 200 ppm [3] | pest or weed control at 200 ppm [4] | pest or weed control at 12.5 ppm [5] | pest or weed control at 12.5 ppm [6] | pest or weed control at 200 ppm [7] | pest or weed control at 200 ppm [8]

O=C(CNC(=O)c1ccc(C2=CC(c3cc(Cl)cc(Cl)c3)(C(F)(F)F)OC2)nc1Cl)NCC(F)(F)F (stereo not shown) [Compound F1, 2-Chloro-6-[5-(3,5-dichloro-phenyl)-5-trifluoromethyl-2,5-dihydro-furan-3-yl]-N-[(2,2,2-trifluoro-ethylcarbamoyl)-methyl]-nicotinamide]
≥ 80%: pest or weed control at 200 ppm [1] | pest or weed control at 200 ppm [2] | pest or weed control at 200 ppm [3] | pest or weed control at 200 ppm [4] | pest or weed control at 12.5 ppm [5] | pest or weed control at 12.5 ppm [6] | pest or weed control at 200 ppm [7] | pest or weed control at 200 ppm [8]

Cc1cc(C2=CC(c3cc(Cl)cc(Cl)c3)(C(F)(F)F)OC2)ccc1C(=O)NCc1ccccn1 (stereo not shown) [Compound D15]
≥ 80%: pest or weed control at 200 ppm [1] | pest or weed control at 200 ppm [2] | pest or weed control at 200 ppm [3] | pest or weed control at 200 ppm [4] | pest or weed control at 12.5 ppm [5] | pest or weed control at 12.5 ppm [6] | pest or weed control at 200 ppm [7] | pest or weed control at 200 ppm [8]

Cc1cc(C2=CC(c3cc(Cl)cc(Cl)c3)(C(F)(F)F)OC2)ccc1C(=O)NC1CSC1 (stereo not shown) [Compound D21]
≥ 80%: pest or weed control at 200 ppm [1] | pest or weed control at 200 ppm [3] | pest or weed control at 12.5 ppm [5]
